# Reference: ChEMBL document CHEMBL5661980, “Discovery of OSI-906: a selective and orally efficacious dual inhibitor of the IGF-1 receptor and insulin receptor” (Future Med Chem, 2009)
# How the values were obtained:
# [1] = AUC last in CD-1 mouse measured at 25 mg/kg, po for 1 to 24 hrs by HPLC-MS/MS analysis; format: ADME, organism-based; conditions: in vivo, time 1-24 hrs
# NIH3T3 [2] = assay: Antitumor activity against mouse 3T3 cells allografted in athymic nu/nu CD-1 mouse assessed as tumor regression at 75 mg/kg, po for 12 days relative to control; format: functional; conditions: time 12 day
# [3] = Oral bioavailability in CD-1 mouse measured at 5 mg/kg for 1 to 24 hrs by HPLC-MS/MS analysis; format: ADME, organism-based; conditions: in vivo, time 1-24 hrs
# [4] = Cmax in Beagle dog measured at 5 mg/kg, po for 1 to 24 hrs by HPLC-MS/MS analysis; format: ADME, organism-based, Canis lupus familiaris; conditions: in vivo, time 1-24 hrs
# Cytochrome P450 3A4 = Cytochrome P450 3A4 (Homo sapiens, UniProt P08684); assay: Inhibition of CYP3A4 (unknown origin) using luciferin as substrate in presence of NADPH generating system incubated for 20 mins by luminescent method; format: ADME
# Sequence of Cytochrome P450 3A4 (P08684 whole entry): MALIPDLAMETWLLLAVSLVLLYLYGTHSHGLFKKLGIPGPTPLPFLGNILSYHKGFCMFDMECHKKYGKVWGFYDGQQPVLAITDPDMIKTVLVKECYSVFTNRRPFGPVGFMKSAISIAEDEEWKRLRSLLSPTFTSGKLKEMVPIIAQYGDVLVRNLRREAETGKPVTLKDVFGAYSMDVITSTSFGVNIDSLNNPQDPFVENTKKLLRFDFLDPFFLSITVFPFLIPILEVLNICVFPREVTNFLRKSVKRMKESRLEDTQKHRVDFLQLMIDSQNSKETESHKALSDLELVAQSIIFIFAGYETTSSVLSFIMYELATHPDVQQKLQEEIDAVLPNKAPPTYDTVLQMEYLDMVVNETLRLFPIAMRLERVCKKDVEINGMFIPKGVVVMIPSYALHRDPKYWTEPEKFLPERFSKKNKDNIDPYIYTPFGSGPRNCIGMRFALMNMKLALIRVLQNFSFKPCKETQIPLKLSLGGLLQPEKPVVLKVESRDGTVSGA
# [5] = Cmax in CD-1 mouse measured at 250 mg/kg, po for 1 to 24 hrs by HPLC-MS/MS analysis; format: ADME, organism-based; conditions: in vivo, time 1-24 hrs
# [6] = Oral bioavailability in Sprague-Dawley rat measured at 100 mg/kg for 1 to 24 hrs by HPLC-MS/MS analysis; format: ADME, organism-based; conditions: in vivo, time 1-24 hrs
# [7] = Cmax in CD-1 mouse measured at 75 mg/kg, po for 1 to 24 hrs by HPLC-MS/MS analysis; format: ADME, organism-based; conditions: in vivo, time 1-24 hrs
# [8] = Oral bioavailability in CD-1 mouse measured at 25 mg/kg for 1 to 24 hrs by HPLC-MS/MS analysis; format: ADME, organism-based; conditions: in vivo, time 1-24 hrs
# NIH3T3 [9] = assay: Antitumor activity against mouse 3T3 cells allografted in athymic nu/nu CD-1 mouse assessed as tumor growth inhibition at 25 mg/kg, po for 12 days relative to control; format: functional; conditions: NIH3T3, 288 h, time 12 day, read-out: TGI
# [10] = Toxicity in athymic nu/nu CD-1 mouse allografted with mouse 3T3 cells expressing human IGF-1R assessed as loss in body weight at 25 mg/kg, po for 12 days relative to control; format: organism-based, NIH3T3; conditions: in vivo, 288 h, time 12 day
# [11] = In vivo inhibition of IGF-1R phosphorylation in athymic nu/nu CD-1 mouse allografted with mouse 3T3 cells expressing human IGF-1R at 75 mg/kg, po measured after 4 to 24 hrs relative to control; format: functional; conditions: nu/nu CD-1, NIH3T3, time 4-24 hrs
# [12] = Oral bioavailability in Beagle dog measured at 5 mg/kg for 1 to 24 hrs by HPLC-MS/MS analysis; format: ADME, organism-based, Canis lupus familiaris; conditions: in vivo, time 1-24 hrs
# [13] = AUC (0 to infinity) in CD-1 mouse measured at 5 mg/kg, iv for 1 to 24 hrs by HPLC-MS/MS analysis; format: ADME, organism-based; conditions: in vivo, time 1-24 hrs
# NIH3T3 [14] = assay: Antitumor activity against mouse 3T3 cells allografted in athymic nu/nu CD-1 mouse assessed as tumor growth inhibition at 75 mg/kg, po for 12 days relative to control; format: functional; conditions: NIH3T3, 288 h, time 12 day, read-out: TGI
# [15] = Elimination half life in CD-1 mouse measured at 5 mg/kg, iv for 1 to 24 hrs by HPLC-MS/MS analysis; format: ADME, organism-based; conditions: in vivo, time 1-24 hrs, read-out: beta t1/2 (converted)
# [16] = Cmax in Sprague-Dawley rat measured at 100 mg/kg, po for 1 to 24 hrs by HPLC-MS/MS analysis; format: ADME, organism-based; conditions: in vivo, time 1-24 hrs
# [17] = Clearance in Beagle dog measured at 2.5 mg/kg, iv for 1 to 24 hrs by HPLC-MS/MS analysis; format: ADME, organism-based, Canis lupus familiaris; conditions: in vivo, time 1-24 hrs
# [18] = Toxicity in athymic nu/nu CD-1 mouse allografted with mouse 3T3 cells expressing human IGF-1R assessed as hyperglycemia at 75 mg/kg, po for 12 days; format: organism-based, NIH3T3; conditions: in vivo, 288 h, time 12 day
# [19] = Clearance in Sprague-Dawley rat measured at 5 mg/kg, iv for 1 to 24 hrs by HPLC-MS/MS analysis; format: ADME, organism-based; conditions: in vivo, time 1-24 hrs
# [20] = AUC (0 to infinity) in Sprague-Dawley rat measured at 5 mg/kg, iv for 1 to 24 hrs by HPLC-MS/MS analysis; format: ADME, organism-based; conditions: in vivo, time 1-24 hrs
# [21] = Volume of distribution at steady state in CD-1 mouse measured at 5 mg/kg, iv for 1 to 24 hrs by HPLC-MS/MS analysis; format: ADME, organism-based; conditions: in vivo, time 1-24 hrs, read-out: Vdss
# [22] = AUC last in Sprague-Dawley rat measured at 100 mg/kg, po for 1 to 24 hrs by HPLC-MS/MS analysis; format: ADME, organism-based; conditions: in vivo, time 1-24 hrs
# [23] = AUC last in CD-1 mouse measured at 75 mg/kg, po for 1 to 24 hrs by HPLC-MS/MS analysis; format: ADME, organism-based; conditions: in vivo, time 1-24 hrs
# [24] = Elimination half life in Beagle dog measured at 2.5 mg/kg, iv for 1 to 24 hrs by HPLC-MS/MS analysis; format: ADME, organism-based, Canis lupus familiaris; conditions: in vivo, time 1-24 hrs, read-out: beta t1/2 (converted)
# [25] = AUC last in Beagle dog measured at 5 mg/kg, po for 1 to 24 hrs by HPLC-MS/MS analysis; format: ADME, organism-based, Canis lupus familiaris; conditions: in vivo, time 1-24 hrs
# [26] = Toxicity in athymic nu/nu CD-1 mouse allografted with mouse 3T3 cells expressing human IGF-1R assessed as loss in body weight at 75 mg/kg, po for 12 days relative to control; format: organism-based, NIH3T3; conditions: in vivo, 288 h, time 12 day
# [27] = Plasma concentration in CD-1 mouse measured at 75 mg/kg, po for 24 hrs by HPLC-MS/MS analysis; format: ADME, organism-based
# Cytochrome P450 2D6 = Cytochrome P450 2D6 (Homo sapiens, UniProt P10635); assay: Inhibition of CYP2D6 (unknown origin) in presence of NADPH generating system incubated for 20 mins by luminescent method; format: ADME
# Sequence of Cytochrome P450 2D6 (P10635 whole entry): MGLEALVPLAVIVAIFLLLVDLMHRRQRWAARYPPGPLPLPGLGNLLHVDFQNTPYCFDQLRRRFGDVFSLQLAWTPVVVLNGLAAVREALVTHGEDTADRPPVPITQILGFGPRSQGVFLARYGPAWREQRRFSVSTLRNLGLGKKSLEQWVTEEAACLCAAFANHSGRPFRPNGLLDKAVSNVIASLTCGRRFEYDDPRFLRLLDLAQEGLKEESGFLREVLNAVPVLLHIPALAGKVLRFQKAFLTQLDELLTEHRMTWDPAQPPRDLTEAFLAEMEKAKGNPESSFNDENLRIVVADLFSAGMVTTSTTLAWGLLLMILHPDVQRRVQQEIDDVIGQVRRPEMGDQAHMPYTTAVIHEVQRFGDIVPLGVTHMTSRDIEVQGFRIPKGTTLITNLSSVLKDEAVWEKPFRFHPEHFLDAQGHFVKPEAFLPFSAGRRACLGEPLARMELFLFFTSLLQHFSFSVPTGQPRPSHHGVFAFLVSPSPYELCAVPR
# [28] = Volume of distribution at steady state in Sprague-Dawley rat measured at 5 mg/kg, iv for 1 to 24 hrs by HPLC-MS/MS analysis; format: ADME, organism-based; conditions: in vivo, time 1-24 hrs, read-out: Vdss
# [29] = Oral bioavailability in Sprague-Dawley rat measured at 12.5 mg/kg for 1 to 24 hrs by HPLC-MS/MS analysis; format: ADME, organism-based; conditions: in vivo, time 1-24 hrs
# [30] = Cmax in CD-1 mouse measured at 25 mg/kg, po for 1 to 24 hrs by HPLC-MS/MS analysis; format: ADME, organism-based; conditions: in vivo, time 1-24 hrs
# [31] = Cmax in CD-1 mouse measured at 5 mg/kg, po for 1 to 24 hrs by HPLC-MS/MS analysis; format: ADME, organism-based; conditions: in vivo, time 1-24 hrs
# [32] = Clearance in CD-1 mouse measured at 5 mg/kg, iv for 1 to 24 hrs by HPLC-MS/MS analysis; format: ADME, organism-based; conditions: in vivo, time 1-24 hrs
# [33] = Cmax in Sprague-Dawley rat measured at 12.5 mg/kg, po for 1 to 24 hrs by HPLC-MS/MS analysis; format: ADME, organism-based; conditions: in vivo, time 1-24 hrs
# [34] = Oral bioavailability in CD-1 mouse measured at 75 mg/kg for 1 to 24 hrs by HPLC-MS/MS analysis; format: ADME, organism-based; conditions: in vivo, time 1-24 hrs
# [35] = AUC last in Sprague-Dawley rat measured at 12.5 mg/kg, po for 1 to 24 hrs by HPLC-MS/MS analysis; format: ADME, organism-based; conditions: in vivo, time 1-24 hrs
# [36] = AUC (0 to infinity) in Beagle dog measured at 2.5 mg/kg, iv for 1 to 24 hrs by HPLC-MS/MS analysis; format: ADME, organism-based, Canis lupus familiaris; conditions: in vivo, time 1-24 hrs
# [37] = Plasma concentration in athymic nu/nu CD-1 mouse allografted with mouse 3T3 cells expressing human IGF-1R at 75 mg/kg, po measured after 24 hrs; format: ADME, organism-based, NIH3T3
compound,measurement,setting,value
C[C@]1(O)C[C@@H](c2nc(-c3ccc4ccc(-c5ccccc5)nc4c3)c3c(N)nccn32)C1 [LINSITINIB],AUC(0-t),[1],26700 ng·h/mL
same,Activity,NIH3T3 [2],55%
same,bioavailability,[3],98%
same,Cmax,[4],1.2 µM
same,IC50,Cytochrome P450 3A4,> 10 µM
same,Cmax,[5],42 µM
same,bioavailability,[6],92%
same,Cmax,[7],16.8 µM
same,bioavailability,[8],100%
same,inhibition in vivo at 25 mg/kg,NIH3T3 [9],60%
same,Activity,[10],< 10%
same,inhibition in vivo at 75 mg/kg,[11],80%
same,bioavailability,[12],64%
same,AUC(0-inf),[13],6950 ng·h/mL
same,inhibition in vivo at 75 mg/kg,NIH3T3 [14],100%
same,half-life,[15],2.14 h
same,Cmax,[16],34.6 µM
same,clearance,[17],39 mL/min/kg
same,Activity,[18],Toxic
same,clearance,[19],4 mL/min/kg
same,AUC(0-inf),[20],23100 ng·h/mL
same,Vd,[21],2.05 L/kg
same,AUC(0-t),[22],424000 ng·h/mL
same,AUC(0-t),[23],87500 ng·h/mL
same,half-life,[24],1.18 h
same,AUC(0-t),[25],1330 ng·h/mL
same,Activity,[26],16%
same,concentration at 24 h,[27],2.92 µM
same,IC50,Cytochrome P450 2D6,> 10 µM
same,Vd,[28],0.79 L/kg
same,bioavailability,[29],74%
same,Cmax,[30],16 µM
same,Cmax,[31],3.42 µM
same,clearance,[32],12 mL/min/kg
same,Cmax,[33],10 µM
same,bioavailability,[34],84%
same,AUC(0-t),[35],42800 ng·h/mL
same,AUC(0-inf),[36],1070 ng·h/mL
same,concentration at 24 h,[37],4.77 µM
